Each structure is given as a SMILES string.

In the test the target is TNAP (Homo sapiens (Human), UniProt P05186). Nature of the test: TNAP (PPi) inhibition assay, pyrophosphate as substrate. The test is classed as biochemical. The procedure, abridged:
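Enzyme source was conditioned serum-free medium from COS-1 cells transiently expressing tagged human TNAP, dialyzed against TBS with MgCl2/ZnCl2. Activity on natural substrate PPi at pH 7.4 read as liberated phosphate (Biomol Green).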
As usually defined, the IC50 is the midpoint of a concentration-inhibition curve. In the case of `CCCN(c1cnc2ccccc2c1)S(=O)(=O)c1cc(Br)ccc1OC` [Example VII-3, 5-Bromo-2-methoxy-N-propyl-N-(quinolin-3-yl)benzenesulfonamide], the IC50 is > 1000 nM.
The figure for `COc1ccc(Br)cc1S(=O)(=O)N(c1cnc2ccccc2c1)C(C)C` [Example VII-4, 5-Bromo-N-isopropyl-2-methoxy-N-(quinolin-3-yl)benzenesulfonamide] is > 1000 nM; for `CCCCN(c1cnc2ccccc2c1)S(=O)(=O)c1cc(Br)ccc1OC` [Example VII-5, 5-Bromo-N-butyl-2-methoxy-N-(quinolin-3-yl)benzenesulfonamide] it is > 1000 nM; for `COc1ccc(Br)cc1S(=O)(=O)N(Cc1ccccc1)c1cnc2ccccc2c1` [Example VII-6, 5-Bromo-N-benzyl-2-methoxy-N-(quinolin-3-yl)benzenesulfonamide] it is > 1000 nM.
The figure for `COCCN(c1cnc2ccccc2c1)S(=O)(=O)c1cc(Br)ccc1OC` [Example VII-7, 5-Bromo-2-methoxy-N-(2-methoxyethyl)-N-(quinolin-3-yl)benzenesulfonamide] is > 1000 nM.
The figure for `COc1ccc(Br)cc1S(=O)(=O)N(CCN(C)C)c1cnc2ccccc2c1` [Example VII-9, 5-Bromo-N-(2-(dimethylamino)ethyl)-2-methoxy-N-(quinolin-3-yl)benzenesulfonamide] is > 1000 nM; for `C=CCN(c1cnc2ccccc2c1)S(=O)(=O)c1cc(Br)ccc1OC` [Example VII-10, N-allyl-5-bromo-2-methoxy-N-(quinolin-3-yl)benzenesulfonamide] it is > 1000 nM.
For the molecule `C#CCN(c1cnc2ccccc2c1)S(=O)(=O)c1cc(Br)ccc1OC` [Example VII-11, 5-Bromo-2-methoxy-N-(prop-2-yn-1-yl)-N-(quinolin-3-yl)benzenesulfonamide], the IC50 is > 1000 nM.
The figure for `COc1ccc(OC)c(S(=O)(=O)N(C)c2cnc3ccccc3c2)c1` [Example VII-12, 2,5-Dimethoxy-N-methyl-N-(quinolin-3-yl)benzenesulfonamide] is > 1000 nM; for `CCN(c1cnc2ccccc2c1)S(=O)(=O)c1cc(OC)ccc1OC` [Example VII-13, 2,5-Dimethoxy-N-ethyl-N-(quinolin-3-yl)benzenesulfonamide] it is > 1000 nM; for `COc1ccc(OC)c(S(=O)(=O)N(c2cnc3ccccc3c2)C(C)C)c1` [Example VII-14, 2,5-Dimethoxy-N-isopropyl-N-(quinolin-3-yl)benzenesulfonamide] it is > 1000 nM.
The figure for `CCCCN(c1cnc2ccccc2c1)S(=O)(=O)c1cc(OC)ccc1OC` [Example VII-15, 2,5-Dimethoxy-N-butyl-N-(quinolin-3-yl)benzenesulfonamide] is > 1000 nM.
The figure for `COc1ccc(OC)c(S(=O)(=O)N(Cc2ccccc2)c2cnc3ccccc3c2)c1` [Example VII-16, 2,5-Dimethoxy-N-benzyl-N-(quinolin-3-yl)benzenesulfonamide] is > 1000 nM.
`COCCN(c1cnc2ccccc2c1)S(=O)(=O)c1cc(OC)ccc1OC` [Example VII-17, 2,5-Dimethoxy-N-(2-methoxyethyl)-N-(quinolin-3-yl)benzenesulfonamide]: the IC50 is > 1000 nM.
The figure for `COCCCN(c1cnc2ccccc2c1)S(=O)(=O)c1cc(OC)ccc1OC` [Example VII-18, 2,5-Dimethoxy-N-(3-methoxypropyl)-N-(quinolin-3-yl)benzenesulfonamide] is > 1000 nM; for `COc1ccc(OC)c(S(=O)(=O)N(CCN(C)C)c2cnc3ccccc3c2)c1` [Example VII-19, N-(2-(Dimethylamino)ethyl)-2,5-dimethoxy-N-(quinolin-3-yl)benzenesulfonamide] it is > 1000 nM; for `C=CCN(c1cnc2ccccc2c1)S(=O)(=O)c1cc(OC)ccc1OC` [Example VII-20, N-Allyl-2,5-dimethoxy-N-(quinolin-3-yl)benzenesulfonamide] it is > 1000 nM.
The figure for `C#CCN(c1cnc2ccccc2c1)S(=O)(=O)c1cc(OC)ccc1OC` [Example VII-21, 2,5-Dimethoxy-N-(prop-2-yn-1-yl)-N-(quinolin-3-yl)benzenesulfonamide] is > 1000 nM; for `COc1ccc(Br)cc1S(=O)(=O)Nc1ccc(N2CCOCC2)nc1` [Example VIII-1, 5-Bromo-2-methoxy-N-(6-morpholinopyridin-3-yl)benzenesulfonamide] it is > 1000 nM; for `COc1ccc(OC)c(S(=O)(=O)Nc2ccc(N3CCOCC3)nc2)c1` [Example VIII-2, 2,5-Dimethoxy-N-(6-morpholinopyridin-3-yl)benzenesulfonamide] it is > 1000 nM.
The figure for `COc1ccc(Br)cc1S(=O)(=O)Nc1ccc(N)nc1` [Example VIII-3, 5-Bromo-2-methoxy-N-(6-Amino-pyridin-3-yl)-benzenesulfonamide] is > 1000 nM; for `COc1ccc(OC)c(S(=O)(=O)Nc2ccc(N)nc2)c1` [Example VIII-4, 2,5-Dimethoxy-N-(6-Amino-pyridin-3-yl)-benzenesulfonamide] it is > 1000 nM; for `CNc1ccc(NS(=O)(=O)c2cc(Br)ccc2OC)cn1` [Example VIII-5, 5-Bromo-2-methoxy-N-(6-methylamino-pyridin-3-yl)-benzenesulfonamide] it is 100 to 1000 nM.
Take `CNc1ccc(NS(=O)(=O)c2cc(OC)ccc2OC)cn1` [Example VIII-6, 2,5-Dimethoxy-N-(6-methylamino-pyridin-3-yl)-benzenesulfonamide]: the half-inhibitory concentration (IC50) is > 1000 nM.
The figure for `COc1ccc(Br)cc1S(=O)(=O)Nc1ccc(N(C)C)nc1` [Example VIII-7, 5-Bromo-N-(6-(dimethylamino)pyridin-3-yl)-2-methoxybenzenesulfonamide] is > 1000 nM.
The figure for `COc1ccc(OC)c(S(=O)(=O)Nc2ccc(N(C)C)nc2)c1` [Example VIII-8, N-(6-(Dimethylamino)pyridin-3-yl)-2,5-dimethoxybenzenesulfonamide] is > 1000 nM; for `CCN(CC)c1ccc(NS(=O)(=O)c2cc(Br)ccc2OC)cn1` [Example VIII-9, 5-Bromo-N-(6-(diethylamino)pyridin-3-yl)-2-methoxybenzenesulfonamide] it is 100 to 1000 nM; for `CCN(CC)c1ccc(NS(=O)(=O)c2cc(OC)ccc2OC)cn1` [Example VIII-10, N-(6-(Diethylamino)pyridin-3-yl)-2,5-dimethoxybenzenesulfonamide] it is > 1000 nM.
The figure for `COCCNc1ccc(NS(=O)(=O)c2cc(Br)ccc2OC)cn1` [Example VIII-11, 5-Bromo-2-methoxy-N-(6-((2-methoxyethyl)amino)pyridin-3-yl)benzenesulfonamide] is > 1000 nM; for `COCCNc1ccc(NS(=O)(=O)c2cc(OC)ccc2OC)cn1` [Example VIII-12, 2,5-Dimethoxy-N-(6-((2-methoxyethyl)amino)pyridin-3-yl)benzenesulfonamide] it is > 1000 nM.
As to `COc1ccc(Br)cc1S(=O)(=O)Nc1ccc(NCCN(C)C)nc1` [Example VIII-13, 5-Bromo-N-(6-((2-(dimethylamino)ethyl)amino)pyridin-3-yl)-2-methoxybenzenesulfonamide], the IC50 was > 1000 nM.
The figure for `COc1ccc(OC)c(S(=O)(=O)Nc2ccc(NCCN(C)C)nc2)c1` [Example VIII-14, N-(6-((2-(Dimethylamino)ethyl)amino)pyridin-3-yl)-2,5-dimethoxybenzenesulfonamide] is > 1000 nM; for `COc1ccc(Br)cc1S(=O)(=O)Nc1ccc(Nc2ccccc2)nc1` [Example VIII-15, 5-Bromo-2-methoxy-N-(6-(phenylamino)pyridin-3-yl)benzenesulfonamide] it is > 1000 nM.
The figure for `COc1ccc(Br)cc1S(=O)(=O)Nc1ccc(N2CCCCC2)nc1` [Example VIII-17, 5-Bromo-2-methoxy-N-(3,4,5,6-tetrahydro-2H-[1,2′]bipyridinyl-5′-yl)-benzenesulfonamide] is > 1000 nM; for `COc1ccc(OC)c(S(=O)(=O)Nc2ccc(N3CCCCC3)nc2)c1` [Example VIII-18, 2,5-Dimethoxy-N-(3,4,5,6-tetrahydro-2H-[1,2′]bipyridinyl-5′-yl)-benzenesulfonamide] it is > 1000 nM; for `COc1ccc(Br)cc1S(=O)(=O)Nc1ccc(N2CCN(C)CC2)nc1` [Example VIII-19, 5-Bromo-2-methoxy-N-[6-(4-methyl-piperazin-1-yl)-pyridin-3-yl]-benzenesulfonamide] it is > 1000 nM.
The figure for `COc1ccc(OC)c(S(=O)(=O)Nc2ccc(N3CCN(C)CC3)nc2)c1` [Example VIII-20, 2,5-Dimethoxy-N-[6-(4-methyl-piperazin-1-yl)-pyridin-3-yl]-benzenesulfonamide] is > 1000 nM; for `O=S(=O)(Nc1cnc2ccccc2c1)c1cc(Br)ccc1OC(F)(F)F` [Example X-1, 5-Bromo-N-quinolin-3-yl-2-trifluoromethoxy-benzenesulfonamide] it is < 100 nM.
`O=S(=O)(Nc1cnc2ccccc2c1)c1cc(F)ccc1OC(F)(F)F` [Example X-2, 5-Fluoro-N-quinolin-3-yl-2-trifluoromethoxy-benzenesulfonamide]: the 50% inhibitory concentration (IC50) lay in the range of 100 to 1000 nM.
The figure for `O=S(=O)(Nc1cnc2ccccc2c1)c1cc(Cl)ccc1OC(F)(F)F` [Example X-3, 5-Chloro-N-quinolin-3-yl-2-trifluoromethoxy-benzenesulfonamide] is < 100 nM; for `Cc1ccc(OC(F)(F)F)c(S(=O)(=O)Nc2cnc3ccccc3c2)c1` [Example X-4, 5-Methyl-N-quinolin-3-yl-2-trifluoromethoxy-benzenesulfonamide] it is < 100 nM.
For the molecule `Cc1ccc(OC(F)(F)F)cc1S(=O)(=O)Nc1cnc2ccccc2c1` [Example X-5, 2-methyl-N-quinolin-3-yl-5-trifluoromethoxy-benzenesulfonamide], the concentration for half-maximal inhibition (IC50) was > 1000 nM.
The figure for `COc1ccc(OC(F)(F)F)cc1S(=O)(=O)Nc1cnc2ccccc2c1` [Example X-6, 2-Methoxy-N-(quinolin-3-yl)-5-(trifluoromethoxy)benzenesulfonamide] is < 100 nM.

Source of the values: patent US10370333B2 (Sanford Burnham Prebys Medical Discovery Institute, priority 2012, dated 2019).
